{
  "source": "paper PMC9284491",
  "about": "(Nature Communications, 2022)",
  "key": {"[1]": {"assay": "24 h urine fraction, renal elimination of amcenestrant", "assay_type": "in vivo, human", "conditions": "Part B, QD administration"}, "[2]": {"assay": "Dose-limiting toxicities, MTD and RP2D in dose escalation", "assay_type": "in vivo", "method": "During dose escalation, treatment was initiated on day 1 in the fasting state in cohorts starting at a dose of 20 mg orally QD, escalating in subsequent cohorts to planned doses of 50–600 mg. For all cohorts, treatment was omitted on day 2, was administered on day 3 after a moderate fat breakfast, and was administered from day 4 in the fasting state. Dose escalation proceeded based on the occurrence of DLT together with target saturation by ^18F-FES PET/CT scans[45] and pharmacokinetic parameters during the first 28-day cycle, and according to a 3 + 3 design. […] During dose expansion, patients were treated at the RP2D. Patients were treated until disease progression, unacceptable toxicity, withdrawal of patient consent, or other reasons determined by the investigator (poor compliance with the protocol or intercurrent illness). […]\nAnalysis populations and associated statistical methods. […] Results were analyzed using descriptive statistics. […]"}},
  "data": [
    {"compound": "O=C(O)c1ccc2c(c1)CCCC(c1ccc(Cl)cc1Cl)=C2c1ccc(O[C@H]2CCN(CCCF)C2)cc1", "note": "[amcenestrant, 6-(2,4-Dichlorophenyl)−5-[4-[(3S)−1-(3-fluoropropyl)pyrrolidin-3-yl]oxyphenyl]−8,9-dihydro-7H-benzo[7]annulene-2-carboxylic acid]", "values": [
      {"measurement": "amcenestrant excreted in urine over the 24-h interval", "setting": "[1]", "result": "< 0.1 % of the administered dose"},
      {"measurement": "maximum tolerated dose (MTD)", "setting": "[2]; Part A, 20-600 mg QD", "result": "not reached"},
      {"measurement": "dose-limiting toxicities", "setting": "[2]; in vivo", "result": "No dose-limiting toxicities occurred"}
    ]}
  ]
}
